Laboratory results reported in ChEMBL document CHEMBL1143694, “Fawcettimine-related alkaloids from Lycopodium serratum” (J Nat Prod, 2007).
The source made the active and inactive calls. The rule behind the calls is not given here.

Molecular target: Acetylcholinesterase (Homo sapiens, UniProt P22303)
Assay: Inhibition of AChE by Ellman method

Acetylcholinesterase, sequence (P22303 whole entry): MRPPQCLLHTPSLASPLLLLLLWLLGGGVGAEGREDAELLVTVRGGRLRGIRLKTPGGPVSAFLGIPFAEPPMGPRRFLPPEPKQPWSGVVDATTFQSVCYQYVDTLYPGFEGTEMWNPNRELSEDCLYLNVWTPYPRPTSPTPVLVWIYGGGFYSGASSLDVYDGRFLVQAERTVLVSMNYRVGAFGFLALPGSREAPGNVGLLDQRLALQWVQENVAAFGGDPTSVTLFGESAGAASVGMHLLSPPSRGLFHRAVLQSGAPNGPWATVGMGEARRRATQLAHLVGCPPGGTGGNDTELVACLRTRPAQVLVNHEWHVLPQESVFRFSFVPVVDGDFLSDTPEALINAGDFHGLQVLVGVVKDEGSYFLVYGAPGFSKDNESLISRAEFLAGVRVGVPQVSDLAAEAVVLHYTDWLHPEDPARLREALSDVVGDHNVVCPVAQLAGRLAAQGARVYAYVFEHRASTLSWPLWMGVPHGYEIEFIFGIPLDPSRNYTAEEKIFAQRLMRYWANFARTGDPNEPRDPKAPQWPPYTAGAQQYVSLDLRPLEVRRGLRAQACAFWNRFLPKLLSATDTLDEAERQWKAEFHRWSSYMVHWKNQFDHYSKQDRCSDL

SMILES | Activity | IC50 [µM]
C[C@H]1C=C2N3CCC[C@@H]4C(=O)C[C@H](C1)C24[C@H](O)CC3 (some centres undefined) | inactive | 
C[C@H]1C[C@]2(O)N3CC=CC24[C@H](CCC3)C(=O)C[C@@H]4[C@H]1O (some centres undefined) | inactive | 
CC1=C[C@H]2[C@H](O)C(=O)[C@H]3CCCN4CCC[C@H]2[C@]34C1 |  | 16.7
C[C@H]1C=C2N3CC[C@@H](O)C24[C@H](CC(=O)[C@H]4C[C@H](O)C3)C1 (some centres undefined) |  | 27.9
